According to the NIST ThermoML archive (doi:10.1016/j.jct.2015.01.007):

Experiment: molar heat capacity at constant pressure
Conditions: 101.33 kPa

O=P([O-])([O-])[O-].[Fe+2].[Li+] [iron(II) lithium phosphate]
Conditions | molar heat capacity at constant pressure [J/K/mol]
38.89 K, Crystal 2, relaxation calorimetry | 19.19
40 K, Crystal 2, relaxation calorimetry | 20.69
40.75 K, Crystal 2, relaxation calorimetry | 21.8
42 K, Crystal 2, relaxation calorimetry | 23.73
42.62 K, Crystal 2, relaxation calorimetry | 24.74
44.48 K, Crystal 2, relaxation calorimetry | 28.1
45 K, Crystal 2, relaxation calorimetry | 29.13
45.5 K, Crystal 2, relaxation calorimetry | 30.18
45.72 K, Crystal 2, relaxation calorimetry | 30.67
45.92 K, Crystal 2, relaxation calorimetry | 31.15
46 K, Crystal 2, relaxation calorimetry | 31.31
46.14 K, Crystal 2, relaxation calorimetry | 31.65
46.34 K, Crystal 2, relaxation calorimetry | 32.17
46.55 K, Crystal 2, relaxation calorimetry | 32.68
46.75 K, Crystal 2, relaxation calorimetry | 33.24
46.97 K, Crystal 2, relaxation calorimetry | 33.77
47 K, Crystal 2, relaxation calorimetry | 33.89
47.16 K, Crystal 2, relaxation calorimetry | 34.33
47.38 K, Crystal 2, relaxation calorimetry | 34.9
47.58 K, Crystal 2, relaxation calorimetry | 35.53
47.8 K, Crystal 2, relaxation calorimetry | 36.14
47.99 K, Crystal 2, relaxation calorimetry | 36.79
48 K, Crystal 2, relaxation calorimetry | 36.77
48.2 K, Crystal 2, relaxation calorimetry | 37.43
48.4 K, Crystal 2, relaxation calorimetry | 38.11
48.62 K, Crystal 2, relaxation calorimetry | 38.7
48.82 K, Crystal 2, relaxation calorimetry | 39.3
49 K, Crystal 2, relaxation calorimetry | 39.73
49.03 K, Crystal 2, relaxation calorimetry | 39.72
49.22 K, Crystal 2, relaxation calorimetry | 40.03
49.24 K, Crystal 1, combination of DSC and relaxation calorimetry | 39.99
49.24 K, Crystal 2, relaxation calorimetry | 39.99
49.44 K, Crystal 1, relaxation calorimetry | 39.73
49.64 K, Crystal 1, relaxation calorimetry | 38.83
49.85 K, Crystal 1, relaxation calorimetry | 36.64
50 K, Crystal 1, combination of DSC and relaxation calorimetry | 34.52
50.05 K, Crystal 1, relaxation calorimetry | 33.84
50.27 K, Crystal 1, relaxation calorimetry | 30.69
50.47 K, Crystal 1, relaxation calorimetry | 28.52
50.69 K, Crystal 1, relaxation calorimetry | 26.66
50.89 K, Crystal 1, relaxation calorimetry | 25.59
51 K, Crystal 1, combination of DSC and relaxation calorimetry | 25.15
51.08 K, Crystal 1, relaxation calorimetry | 24.86
51.29 K, Crystal 1, relaxation calorimetry | 24.3
51.5 K, Crystal 1, relaxation calorimetry | 23.89
51.7 K, Crystal 1, relaxation calorimetry | 23.58
51.9 K, Crystal 1, relaxation calorimetry | 23.36
52 K, Crystal 1, combination of DSC and relaxation calorimetry | 23.25
52.12 K, Crystal 1, relaxation calorimetry | 23.13
52.32 K, Crystal 1, relaxation calorimetry | 22.99
52.53 K, Crystal 1, relaxation calorimetry | 22.88
52.72 K, Crystal 1, relaxation calorimetry | 22.83
52.94 K, Crystal 1, relaxation calorimetry | 22.74
53 K, Crystal 1, combination of DSC and relaxation calorimetry | 22.72
53.14 K, Crystal 1, relaxation calorimetry | 22.69
53.35 K, Crystal 1, relaxation calorimetry | 22.66
53.55 K, Crystal 1, relaxation calorimetry | 22.66
53.77 K, Crystal 1, relaxation calorimetry | 22.66
53.96 K, Crystal 1, relaxation calorimetry | 22.66
54 K, Crystal 1, combination of DSC and relaxation calorimetry | 22.66
54.18 K, Crystal 1, relaxation calorimetry | 22.69
54.38 K, Crystal 1, relaxation calorimetry | 22.68
54.59 K, Crystal 1, relaxation calorimetry | 22.73
54.79 K, Crystal 1, relaxation calorimetry | 22.77
55 K, Crystal 1, combination of DSC and relaxation calorimetry | 22.82
55 K, Crystal 1, relaxation calorimetry | 22.82
55.2 K, Crystal 1, relaxation calorimetry | 22.85
55.41 K, Crystal 1, relaxation calorimetry | 22.91
55.62 K, Crystal 1, relaxation calorimetry | 22.95
56.61 K, Crystal 1, relaxation calorimetry | 23.28
57.71 K, Crystal 1, relaxation calorimetry | 23.69
58.79 K, Crystal 1, relaxation calorimetry | 24.17
59.89 K, Crystal 1, relaxation calorimetry | 24.67
60 K, Crystal 1, combination of DSC and relaxation calorimetry | 24.71
60.97 K, Crystal 1, relaxation calorimetry | 25.19
62.06 K, Crystal 1, relaxation calorimetry | 25.78
63.15 K, Crystal 1, relaxation calorimetry | 26.36
64.24 K, Crystal 1, relaxation calorimetry | 26.97
65 K, Crystal 1, combination of DSC and relaxation calorimetry | 27.41
65.33 K, Crystal 1, relaxation calorimetry | 27.59
